The text below walks through data of patent US20250042929A1, “NEW CRYSTAL FORM OF TRISACCHARIDE” (SHANDONG HENGLU BIOTECH. CO., LTD., priority 2022, published 2025).

The first data set in a line: Hygroscopicity study in constant temperature and humidity chamber. As to conditions: Example 9; 25° C., 75% relative humidity, after 5 days. In kind it is physicochemical. Here is the method: • Step 1: Preparation of glass petri dishes
One day before the experiment, place glass petri dishes (without lids) in a constant temperature and humidity chamber set at 25±1° C. and 75±2% relative humidity for 4 hours. Take out the dishes, accurately weigh, and repeat until consistent weight readings are obtained. Record the data in Table 3. • Step 2: Weigh the amorphous LNTII powder and LNTII crystalline form A from Example 1 separately, place them in the pre-weighed petri dishes from Step 1 in a constant temperature and humidity chamber set at 25° C. and 75% relative humidity. After 5 days, examine any physical changes, reweigh the samples, and calculate their hygroscopicity. Record the results in Tables 2 and 3. A comparison of the physical appearances before and after moisture exposure are depicted in FIG. 5 and FIG. 6.
Replicating the procedure outlined in Example 8, evaluate the LNTII crystalline form A samples obtained from Examples 1-7. Place the samples in pre-weighed petri dishes within a constant temperature and humidity chamber at 25° C. and 75% relative humidity. After 5 days, inspect for any changes in appearance, weigh the samples, and calculate their hygroscopicity. Document the findings in Table 4.
As for `CC(=O)NC1C(O)[C@H](O)C(CO)O[C@H]1OC1C(O)[C@H](O[C@H]2C(CO)OC(O)C(O)C2O)OC(CO)[C@@H]1O` (stereo partly shown) [Example 3 Crystalline form A, Lacto-N-triose II], the Moisture rate came out at 14.09%.

`CC(=O)NC1C(O)[C@H](O)C(CO)O[C@H]1OC1C(O)[C@H](O[C@H]2C(CO)OC(O)C(O)C2O)OC(CO)[C@@H]1O` (stereo partly shown) [Example 4 Crystalline form A, Lacto-N-triose II] had a Moisture rate of 13.61%.

Consider `CC(=O)NC1C(O)[C@H](O)C(CO)O[C@H]1OC1C(O)[C@H](O[C@H]2C(CO)OC(O)C(O)C2O)OC(CO)[C@@H]1O` (stereo partly shown) [Example 5 Crystalline form A, Lacto-N-triose II], for which the Moisture rate came out at 13.79%.

The molecule `CC(=O)NC1C(O)[C@H](O)C(CO)O[C@H]1OC1C(O)[C@H](O[C@H]2C(CO)OC(O)C(O)C2O)OC(CO)[C@@H]1O` (stereo partly shown) [Example 6 Crystalline form A, Lacto-N-triose II] had a Moisture rate of 13.32%.

Molecule `CC(=O)NC1C(O)[C@H](O)C(CO)O[C@H]1OC1C(O)[C@H](O[C@H]2C(CO)OC(O)C(O)C2O)OC(CO)[C@@H]1O` (stereo partly shown) [Example 7 Crystalline form A, Lacto-N-triose II] had a Moisture rate of 12.74%.

The next data set in a line: Stability study, sealed in aluminum-plastic composite film, 40° C. and 75% relative humidity. It counts as physicochemical. As to conditions: Day 0; LNTII content by HPLC. How it is done: In this invention, the quantification of LNTII is performed using high-performance liquid chromatography (HPLC) under the conditions listed below:
Chromatographic column: Asahipak NH2P-504E, 4.6 mm×250 mm, 5 μm particle size; mobile phase composition: acetonitrile to water in a ratio of 65:35; flow rate: 1 mL/min; detection method: UV-VIS detector; wavelength: 210 nm; column temperature: 30° C.; injection volume: 10 μL; total run time: 30 minutes.
Separately weigh 10 g of amorphous LNTII powder produced in Examples 1-7. Seal each sample with aluminum-plastic composite film. Store all samples in a constant temperature and humidity chamber at 40° C. and 75% relative humidity. Retrieve samples at the end of January, February, and March to assess the LNTII content and observe any changes in appearance. Record the outcomes in Table 5.
Molecule `CC(=O)NC1C(O)[C@H](O)C(CO)O[C@H]1OC1C(O)[C@H](O[C@H]2C(CO)OC(O)C(O)C2O)OC(CO)[C@@H]1O` (stereo partly shown) [Example 3 Crystalline form A, Lacto-N-triose II] displayed a Content of 97.87%.

Turning to `CC(=O)NC1C(O)[C@H](O)C(CO)O[C@H]1OC1C(O)[C@H](O[C@H]2C(CO)OC(O)C(O)C2O)OC(CO)[C@@H]1O` (stereo partly shown) [Example 4 Crystalline form A, Lacto-N-triose II], the Content is given as 92.30%.

As to `CC(=O)NC1C(O)[C@H](O)C(CO)O[C@H]1OC1C(O)[C@H](O[C@H]2C(CO)OC(O)C(O)C2O)OC(CO)[C@@H]1O` (stereo partly shown) [Example 5 Crystalline form A, Lacto-N-triose II], the Content is reported as 92.57%.

`CC(=O)NC1C(O)[C@H](O)C(CO)O[C@H]1OC1C(O)[C@H](O[C@H]2C(CO)OC(O)C(O)C2O)OC(CO)[C@@H]1O` (stereo partly shown) [Example 6 Crystalline form A, Lacto-N-triose II] returned a Content of 91.98%.

`CC(=O)NC1C(O)[C@H](O)C(CO)O[C@H]1OC1C(O)[C@H](O[C@H]2C(CO)OC(O)C(O)C2O)OC(CO)[C@@H]1O` (stereo partly shown) [Example 7 Crystalline form A, Lacto-N-triose II] gave a Content of 98.58%.

The data set is the same for the next values; noted with them: End of 1 month; 40° C., 75% relative humidity; HPLC.
Molecule `CC(=O)NC1C(O)[C@H](O)C(CO)O[C@H]1OC1C(O)[C@H](O[C@H]2C(CO)OC(O)C(O)C2O)OC(CO)[C@@H]1O` (stereo partly shown) [Example 3 Crystalline form A, Lacto-N-triose II] gave a Content of 97.90%.

As for `CC(=O)NC1C(O)[C@H](O)C(CO)O[C@H]1OC1C(O)[C@H](O[C@H]2C(CO)OC(O)C(O)C2O)OC(CO)[C@@H]1O` (stereo partly shown) [Example 4 Crystalline form A, Lacto-N-triose II], the Content was determined as 92.32%.

Molecule `CC(=O)NC1C(O)[C@H](O)C(CO)O[C@H]1OC1C(O)[C@H](O[C@H]2C(CO)OC(O)C(O)C2O)OC(CO)[C@@H]1O` (stereo partly shown) [Example 5 Crystalline form A, Lacto-N-triose II] yielded a Content of 92.61%.

In turn, `CC(=O)NC1C(O)[C@H](O)C(CO)O[C@H]1OC1C(O)[C@H](O[C@H]2C(CO)OC(O)C(O)C2O)OC(CO)[C@@H]1O` (stereo partly shown) [Example 6 Crystalline form A, Lacto-N-triose II] yielded a Content of 91.94%.

Molecule `CC(=O)NC1C(O)[C@H](O)C(CO)O[C@H]1OC1C(O)[C@H](O[C@H]2C(CO)OC(O)C(O)C2O)OC(CO)[C@@H]1O` (stereo partly shown) [Example 7 Crystalline form A, Lacto-N-triose II] had a Content of 98.56%.

Staying with this data set, now noted: End of 2 months; 40° C., 75% relative humidity; HPLC.
Take `CC(=O)NC1C(O)[C@H](O)C(CO)O[C@H]1OC1C(O)[C@H](O[C@H]2C(CO)OC(O)C(O)C2O)OC(CO)[C@@H]1O` (stereo partly shown) [Example 3 Crystalline form A, Lacto-N-triose II]: the Content was determined as 97.93%.

Molecule `CC(=O)NC1C(O)[C@H](O)C(CO)O[C@H]1OC1C(O)[C@H](O[C@H]2C(CO)OC(O)C(O)C2O)OC(CO)[C@@H]1O` (stereo partly shown) [Example 4 Crystalline form A, Lacto-N-triose II] registered a Content of 92.33%.

The molecule `CC(=O)NC1C(O)[C@H](O)C(CO)O[C@H]1OC1C(O)[C@H](O[C@H]2C(CO)OC(O)C(O)C2O)OC(CO)[C@@H]1O` (stereo partly shown) [Example 5 Crystalline form A, Lacto-N-triose II] gave a Content of 92.51%.

Take `CC(=O)NC1C(O)[C@H](O)C(CO)O[C@H]1OC1C(O)[C@H](O[C@H]2C(CO)OC(O)C(O)C2O)OC(CO)[C@@H]1O` (stereo partly shown) [Example 6 Crystalline form A, Lacto-N-triose II]: the Content stood at 91.84%.

With `CC(=O)NC1C(O)[C@H](O)C(CO)O[C@H]1OC1C(O)[C@H](O[C@H]2C(CO)OC(O)C(O)C2O)OC(CO)[C@@H]1O` (stereo partly shown) [Example 7 Crystalline form A, Lacto-N-triose II], the Content was 98.48%.

The data set is the same for the next values; noted with them: End of 3 months; 40° C., 75% relative humidity; HPLC.
`CC(=O)NC1C(O)[C@H](O)C(CO)O[C@H]1OC1C(O)[C@H](O[C@H]2C(CO)OC(O)C(O)C2O)OC(CO)[C@@H]1O` (stereo partly shown) [Example 3 Crystalline form A, Lacto-N-triose II] came in with a Content of 97.88%.

Consider `CC(=O)NC1C(O)[C@H](O)C(CO)O[C@H]1OC1C(O)[C@H](O[C@H]2C(CO)OC(O)C(O)C2O)OC(CO)[C@@H]1O` (stereo partly shown) [Example 4 Crystalline form A, Lacto-N-triose II], for which the Content was 92.27%.

The molecule `CC(=O)NC1C(O)[C@H](O)C(CO)O[C@H]1OC1C(O)[C@H](O[C@H]2C(CO)OC(O)C(O)C2O)OC(CO)[C@@H]1O` (stereo partly shown) [Example 5 Crystalline form A, Lacto-N-triose II] had a Content of 92.64%.

In turn, `CC(=O)NC1C(O)[C@H](O)C(CO)O[C@H]1OC1C(O)[C@H](O[C@H]2C(CO)OC(O)C(O)C2O)OC(CO)[C@@H]1O` (stereo partly shown) [Example 6 Crystalline form A, Lacto-N-triose II] gave a Content of 91.93%.

Take `CC(=O)NC1C(O)[C@H](O)C(CO)O[C@H]1OC1C(O)[C@H](O[C@H]2C(CO)OC(O)C(O)C2O)OC(CO)[C@@H]1O` (stereo partly shown) [Example 7 Crystalline form A, Lacto-N-triose II]: the Content was 98.56%.
